Patent US20100120730A1, “6-BENZYL-2,3,4,7-TETRAHYDRO-INDOLO [2,3-C] QUINOLINE COMPOUNDS USEFUL AS PDE5 INHIBITORS” (NYCOMED GmbH, priority 2007, published 2010)

Assays:
human PDE5 = molecular target: T1, human PDE5 (Homo sapiens, UniProt O76074); experiment: Inhibition of PDE5 activity (modified SPA test, human platelet lysate); assay type: biochemical; conditions: PDE5-containing human platelet lysate, 0.5 μM cGMP substrate, 37° C.
T1 construct: from tissue; host or cells: human platelets from fresh donor blood (10,000 g supernatant of sonified platelets)
In short: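 Human platelet lysate (10,000 g supernatant) as PDE5 source; SPA with 0.5 μM cGMP plus [3H]cGMP tracer, 20 mM Tris pH 7.4, 5 mM Mg2+, 1 μM motapizone and 10 nM BAY-60-7550; 5 min preincubation at 37° C., 15 min reaction, stopped with SPA beads containing IBMX. IC50 by non-linear regression.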

## COc1ccc(Cc2nc3c(c4c2[nH]c2ccccc24)[C@@H](O)CC(C)(C)C3)cc1 [Example 81, (S)-6-(4-Methoxy-benzyl)-3,3-dimethyl-2,3,4,7-tetrahydro-1H-indolo[2,3-c]quinolin-1-ol]
Human PDE5
  IC50: 1 nM
other
  melting point: 118 to 120 °C

## COc1ccc(Cc2nc3c(c4c2[nH]c2ccccc24)[C@H](O)CC(C)(C)C3)cc1F [Example 82, (R)-6-(3-Fluoro-4-methoxy-benzyl)-3,3-dimethyl-2,3,4,7-tetrahydro-1H-indolo[2,3-c]quinolin-1-ol]
Human PDE5
  IC50: 31.6 nM
other
  melting point: 164 to 166 °C

## COc1ccc(Cc2nc3c(c4c2[nH]c2ccccc24)[C@H](O)CCC3)cc1F [Example 83, (R)-6-(3-Fluoro-4-methoxy-benzyl)-2,3,4,7-tetrahydro-1H-indolo[2,3-c]quinolin-1-ol]
Human PDE5
  IC50: 25.1 nM
other
  melting point: 124 to 127 °C

## CC1(C)Cc2nc(Cc3cc(F)cc(F)c3)c3[nH]c4ccccc4c3c2[C@H](O)C1 [Example 84, (R)-6-(3,5-Difluoro-benzyl)-3,3-dimethyl-2,3,4,7-tetrahydro-1H-indolo[2,3-c]quinolin-1-ol]
Human PDE5
  IC50: 398 nM
other
  melting point: 129 to 131 °C

## COc1ccc(Cc2nc3c(c4c2[nH]c2ccccc24)[C@@H](O)CCC3)cc1F [Example 85, (S)-6-(3-Fluoro-4-methoxy-benzyl)-2,3,4,7-tetrahydro-1H-indolo[2,3-c]quinolin-1-ol]
Human PDE5
  IC50: 2 nM
other
  melting point: 125 to 127 °C

## CC1(C)Cc2nc(Cc3cc(F)cc(F)c3)c3[nH]c4ccccc4c3c2[C@@H](O)C1 [Example 86, (S)-6-(3,5-Difluoro-benzyl)-3,3-dimethyl-2,3,4,7-tetrahydro-1H-indolo[2,3-c]quinolin-1-ol]
Human PDE5
  IC50: 3.16 nM
other
  melting point: 130 to 131 °C

## CC1(C)Cc2nc(Cc3cccc(F)c3)c3[nH]c4ccccc4c3c2[C@@H](O)C1 [Example 93, (S)-6-(3-Fluoro-benzyl)-3,3-dimethyl-2,3,4,7-tetrahydro-1H-indolo[2,3-c]quinolin-1-ol]
Human PDE5
  IC50: 3.89 nM
other
  melting point: 123 to 126 °C

## CC1(C)Cc2nc(Cc3cccc(Cl)c3)c3[nH]c4ccccc4c3c2[C@@H](O)C1 [Example 94, (S)-6-(3-Chloro-benzyl)-3,3-dimethyl-2,3,4,7-tetrahydro-1H-indolo[2,3-c]quinolin-1-ol]
Human PDE5
  IC50: 15.1 nM
other
  melting point: 124 to 127 °C
